PubChem BioAssay (NCI)
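Step 1: Grow cells in 96-well plates. Step 2: Expose to compound for 48 hours at 5 concentrations. Step 3: Interpolate endpoints linearly; if unreached, use highest concentration. Here, GI50 denotes the concentration required for 50% inhibition of growth. TGI marks complete inhibition of growth.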

Legend:
Experiment in all cases: inhibition of tumour cell growth, NCI panel, 48 h
MALME-3M melanoma = system: MALME-3M melanoma
LOX IMVI melanoma = system: LOX IMVI melanoma
NCI-H460 lung = system: NCI-H460 lung
EKVX NSCLC = system: EKVX NSCLC
MDA-MB-231 breast = system: MDA-MB-231 breast
HT29 colon = system: HT29 colon
K-562 leukemia = system: K-562 leukemia
CCRF-CEM leukemia = system: CCRF-CEM leukemia
786-0 renal = system: 786-0 renal
HS 578T breast = system: HS 578T breast
SN12C renal = system: SN12C renal
UACC-62 melanoma = system: UACC-62 melanoma
RXF 393 renal = system: RXF 393 renal
MCF7 breast = system: MCF7 breast
OVCAR-8 ovarian = system: OVCAR-8 ovarian
SNB-75 CNS = system: SNB-75 CNS
A498 renal = system: A498 renal
ACHN renal = system: ACHN renal
SF-539 CNS = system: SF-539 CNS
HOP-92 NSCLC = system: HOP-92 NSCLC
SK-MEL-28 melanoma = system: SK-MEL-28 melanoma
UO-31 renal = system: UO-31 renal
MOLT-4 leukemia = system: MOLT-4 leukemia
NCI/ADR-RES ovarian = system: NCI/ADR-RES ovarian
OVCAR-5 ovarian = system: OVCAR-5 ovarian
HCT-116 colon = system: HCT-116 colon
DU-145 prostate = system: DU-145 prostate
SF-268 CNS = system: SF-268 CNS
PC-3 prostate = system: PC-3 prostate
COLO 205 colon = system: COLO 205 colon
TK-10 renal = system: TK-10 renal
SR leukemia = system: SR leukemia
SK-MEL-2 melanoma = system: SK-MEL-2 melanoma
OVCAR-3 ovarian = system: OVCAR-3 ovarian
MDA-MB-435 = system: MDA-MB-435
SK-MEL-5 melanoma = system: SK-MEL-5 melanoma
A549 NSCLC = system: A549 NSCLC
U251 CNS = system: U251 CNS
HL-60(TB) leukemia = system: HL-60(TB) leukemia
UACC-257 melanoma = system: UACC-257 melanoma
KM12 colon = system: KM12 colon
T-47D breast = system: T-47D breast
SW-620 colon = system: SW-620 colon
BT-549 breast = system: BT-549 breast
OVCAR-4 ovarian = system: OVCAR-4 ovarian
HCT-15 colon = system: HCT-15 colon
NCI-H23 lung = system: NCI-H23 lung
HOP-62 NSCLC = system: HOP-62 NSCLC
SF-295 CNS = system: SF-295 CNS
CAKI-1 renal = system: CAKI-1 renal
M14 melanoma = system: M14 melanoma
SK-OV-3 ovarian = system: SK-OV-3 ovarian
IGROV1 ovarian = system: IGROV1 ovarian
NCI-H226 lung = system: NCI-H226 lung
RPMI-8226 leukemia = system: RPMI-8226 leukemia
SNB-19 CNS = system: SNB-19 CNS
HCC-2998 colon = system: HCC-2998 colon

Cc1cc(Nc2cc(N3CCN(C)CC3)nc(C#Cc3ccccc3)n2)n[nH]1
GI50 (MALME-3M melanoma): 2 µM | TGI (MALME-3M melanoma): 13.9 µM | GI50 (LOX IMVI melanoma): 1.85 µM | TGI (LOX IMVI melanoma): 12.8 µM | GI50 (NCI-H460 lung): 2.07 µM | TGI (NCI-H460 lung): 13 µM | GI50 (EKVX NSCLC): 11 µM | TGI (EKVX NSCLC): 23.4 µM | GI50 (MDA-MB-231 breast): 3.82 µM | TGI (MDA-MB-231 breast): 16.5 µM | GI50 (HT29 colon): 2.02 µM | TGI (HT29 colon): 8.08 µM | GI50 (K-562 leukemia): 3.79 µM | TGI (K-562 leukemia): 24.4 µM | GI50 (CCRF-CEM leukemia): 6.89 µM | TGI (CCRF-CEM leukemia): > 69.5 µM | GI50 (786-0 renal): 3.13 µM | TGI (786-0 renal): 14.2 µM | GI50 (HS 578T breast): 1.74 µM | TGI (HS 578T breast): 6.22 µM | GI50 (SN12C renal): 2.4 µM | TGI (SN12C renal): 14.2 µM | GI50 (UACC-62 melanoma): 2.45 µM | TGI (UACC-62 melanoma): 15.1 µM | GI50 (RXF 393 renal): 1.18 µM | TGI (RXF 393 renal): 3.79 µM | GI50 (MCF7 breast): 2.31 µM | TGI (MCF7 breast): 13.1 µM | GI50 (OVCAR-8 ovarian): 6.5 µM | TGI (OVCAR-8 ovarian): 22.3 µM | GI50 (SNB-75 CNS): 0.725 µM | TGI (SNB-75 CNS): 2.91 µM | GI50 (A498 renal): 0.703 µM | TGI (A498 renal): 3.68 µM | GI50 (ACHN renal): 1.06 µM | TGI (ACHN renal): 11.7 µM | GI50 (SF-539 CNS): 2.79 µM | TGI (SF-539 CNS): 10.8 µM | GI50 (HOP-92 NSCLC): 0.843 µM | TGI (HOP-92 NSCLC): 4.84 µM | GI50 (SK-MEL-28 melanoma): 5.05 µM | TGI (SK-MEL-28 melanoma): 18.3 µM | GI50 (UO-31 renal): 1.07 µM | TGI (UO-31 renal): 7.28 µM | GI50 (MOLT-4 leukemia): 3.46 µM | TGI (MOLT-4 leukemia): 19.2 µM | GI50 (NCI/ADR-RES ovarian): 4.98 µM | TGI (NCI/ADR-RES ovarian): 28.8 µM | GI50 (OVCAR-5 ovarian): 3.58 µM | TGI (OVCAR-5 ovarian): 18.8 µM | GI50 (HCT-116 colon): 1.4 µM | TGI (HCT-116 colon): 12.7 µM | GI50 (DU-145 prostate): 4.18 µM | TGI (DU-145 prostate): 18.2 µM | GI50 (SF-268 CNS): 3.82 µM | TGI (SF-268 CNS): 16.8 µM | GI50 (PC-3 prostate): 3.17 µM | TGI (PC-3 prostate): 25.4 µM | GI50 (COLO 205 colon): 1.69 µM | TGI (COLO 205 colon): 4.62 µM | GI50 (TK-10 renal): 0.897 µM | TGI (TK-10 renal): 6.79 µM | GI50 (SR leukemia): 3.47 µM | TGI (SR leukemia): 20.4 µM | GI50 (SK-MEL-2 melanoma): 1.24 µM | TGI (SK-MEL-2 melanoma): 7.9 µM | GI50 (OVCAR-3 ovarian): 4.46 µM | TGI (OVCAR-3 ovarian): 17.8 µM | GI50 (MDA-MB-435): 3.24 µM | TGI (MDA-MB-435): 16.1 µM | GI50 (SK-MEL-5 melanoma): 4.32 µM | TGI (SK-MEL-5 melanoma): 16.5 µM | GI50 (A549 NSCLC): 2.81 µM | TGI (A549 NSCLC): 13.3 µM | GI50 (U251 CNS): 3.52 µM | TGI (U251 CNS): 16.9 µM | GI50 (HL-60(TB) leukemia): 2.52 µM | TGI (HL-60(TB) leukemia): 14.8 µM | GI50 (UACC-257 melanoma): 3.58 µM | TGI (UACC-257 melanoma): 15.9 µM | GI50 (KM12 colon): 0.35 µM | TGI (KM12 colon): 11.7 µM | GI50 (T-47D breast): 4.86 µM | TGI (T-47D breast): 23 µM | GI50 (SW-620 colon): 2.72 µM | TGI (SW-620 colon): 14.4 µM | GI50 (BT-549 breast): 4.68 µM | TGI (BT-549 breast): 17.8 µM | GI50 (OVCAR-4 ovarian): 1.7 µM | TGI (OVCAR-4 ovarian): 13.3 µM | GI50 (HCT-15 colon): 2.23 µM | TGI (HCT-15 colon): 15.5 µM | GI50 (NCI-H23 lung): 3.25 µM | TGI (NCI-H23 lung): 18.5 µM | GI50 (HOP-62 NSCLC): 3.19 µM | TGI (HOP-62 NSCLC): 13.9 µM | GI50 (SF-295 CNS): 3.39 µM | TGI (SF-295 CNS): 16.8 µM | GI50 (CAKI-1 renal): 0.945 µM | TGI (CAKI-1 renal): 8.71 µM | GI50 (M14 melanoma): 1.4 µM | TGI (M14 melanoma): 14.7 µM | GI50 (SK-OV-3 ovarian): 2.16 µM | TGI (SK-OV-3 ovarian): 13.2 µM | GI50 (IGROV1 ovarian): 1.13 µM | TGI (IGROV1 ovarian): 6.05 µM | GI50 (NCI-H226 lung): 2.17 µM | TGI (NCI-H226 lung): 14.3 µM | GI50 (RPMI-8226 leukemia): 12.6 µM | TGI (RPMI-8226 leukemia): 59.3 µM | GI50 (SNB-19 CNS): 5.59 µM | TGI (SNB-19 CNS): 19.5 µM | GI50 (HCC-2998 colon): 2.71 µM | TGI (HCC-2998 colon): 13.1 µM
